Assay results as given in PubChem BioAssay (NCI).
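These data come from cells grown in 96-well plates and exposed to compound for 48 hours at five concentrations. Here, GI50 denotes the concentration required for 50% inhibition of growth. TGI marks complete inhibition of growth.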

Experiments:
Assay in all cases: growth of human tumour cells (NCI), 48 h
[1] = tested on: U251 CNS
[2] = tested on: SN12C renal
[3] = tested on: TK-10 renal
[4] = tested on: IGROV1 ovarian
[5] = tested on: SK-MEL-2 melanoma
[6] = tested on: CAKI-1 renal
[7] = tested on: HT29 colon
[8] = tested on: SF-295 CNS
[9] = tested on: MCF7 breast
[10] = tested on: ACHN renal
[11] = tested on: UACC-62 melanoma
[12] = tested on: SR leukemia
[13] = tested on: HL-60(TB) leukemia
[14] = tested on: A549 NSCLC
[15] = tested on: M14 melanoma
[16] = tested on: SNB-75 CNS
[17] = tested on: RXF 393 renal
[18] = tested on: SW-620 colon
[19] = tested on: 786-0 renal
[20] = tested on: RPMI-8226 leukemia
[21] = tested on: SK-MEL-28 melanoma
[22] = tested on: CCRF-CEM leukemia
[23] = tested on: MOLT-4 leukemia
[24] = tested on: A498 renal
[25] = tested on: MALME-3M melanoma
[26] = tested on: SK-MEL-5 melanoma
[27] = tested on: OVCAR-5 ovarian
[28] = tested on: HCT-15 colon
[29] = tested on: HCC-2998 colon

Compound: CCCCCn1ncc(-c2c(O)c(O)cc3c(O)c(-c4c(C)cc5c(-c6cnn(CCCCC)n6)c(O)c(O)cc5c4O)c(C)cc23)n1
- GI50 [1]: 35.1 nM
- TGI [1]: 1890 nM
- GI50 [2]: 124 nM
- TGI [2]: 5.75 µM
- GI50 [3]: 126 nM
- TGI [3]: 5.05 µM
- GI50 [4]: 182 nM
- TGI [4]: 4.75 µM
- GI50 [5]: 147 nM
- TGI [5]: 6.81 µM
- GI50 [6]: 156 nM
- TGI [6]: 4.24 µM
- GI50 [7]: 120 nM
- TGI [7]: 3.45 µM
- GI50 [8]: 108 nM
- TGI [8]: 4.6 µM
- GI50 [9]: 87.4 nM
- TGI [9]: 4.24 µM
- GI50 [10]: 128 nM
- TGI [10]: 4.27 µM
- GI50 [11]: 145 nM
- TGI [11]: 1270 nM
- GI50 [12]: 201 nM
- TGI [12]: 7.27 µM
- GI50 [13]: 124 nM
- TGI [13]: 3.57 µM
- GI50 [14]: 117 nM
- TGI [14]: 4.47 µM
- GI50 [15]: 182 nM
- TGI [15]: 2890 nM
- GI50 [16]: 165 nM
- TGI [16]: 3.84 µM
- GI50 [17]: 112 nM
- TGI [17]: 6.45 µM
- GI50 [18]: 117 nM
- TGI [18]: 6.26 µM
- GI50 [19]: 171 nM
- TGI [19]: 2610 nM
- GI50 [20]: 109 nM
- TGI [20]: 4.9 µM
- GI50 [21]: 306 nM
- TGI [21]: 6.36 µM
- GI50 [22]: 92.7 nM
- TGI [22]: 6.3 µM
- GI50 [23]: 89.8 nM
- TGI [23]: 8.28 µM
- GI50 [24]: 3.99 µM
- TGI [24]: 8.25 µM
- GI50 [25]: 138 nM
- TGI [25]: 4.73 µM
- GI50 [26]: 388 nM
- TGI [26]: 2310 nM
- GI50 [27]: 222 nM
- TGI [27]: 6.57 µM
- GI50 [28]: 97.6 nM
- TGI [28]: 5.01 µM
- GI50 [29]: 471 nM
- TGI [29]: 4.24 µM
